Experimental data reported in publication PMC8962335, “In Vivo Evaluation of ECP Peptide Analogues for the Treatment of Acinetobacter baumannii Infection” (Biomedicines, 2022).
“And” between values parts separate entries of the source, which are not always exact repeats. Equal values may be shown once.

Columns and labels:
E. coli = assay type: cell-based, Escherichia coli; settings: 24 h incubation, MHB, triplicate
Source text: (§1) A. baumannii strain (CECT 452, Valencia, Spain, ATCC 15308, Manassas, VA, USA) and Pseudomonas aeruginosa (P. aeruginosa) strain (CECT 4122, Valencia, Spain, ATCC 15692, Manassas, VA, USA) were from the Colección Española de Cultivos Tipo (CECT, Valencia, Spain). The Escherichia coli (E. coli) BL21 (DE3) strain was from Novagen (Darmstadt, Germany). MRC-5 cells were from the American Type Culture Collection (ATCC, Manassas, VA, USA) and HEK293T cell line was kindly provided by Dr. Raquel Pequerul (UAB, Barcelona, Spain).
(§2) The MIC is defined as the lowest concentration of one reagent to prevent visible growth of bacteria. The MIC determination was followed by the protocol described previously. Briefly, bacteria in exponential growth were used to prepare a suspension in MHB with the approximate number of 5 × 10^5 CFU/mL. Next, an aliquot of 90 μL of bacteria suspension was added into each well of the 96-well polypropylene plate. Immediately, 10 μL of peptide diluted by 0.01% acetic acid was added to the corresponding well to have a final concentration ranging from 20 to 0.16 μM. The plate was incubated for 24 h at 37 °C, 100 rpm. The presence or absence of bacterial growth was visually inspected and confirmed by reading OD600 with Tecan Microplate Reader Spark®. Each test was performed in triplicate.

P. aeruginosa = assay type: cell-based, Pseudomonas aeruginosa; settings: 24 h incubation, MHB, triplicate
Source text: as §1, §2

A. baumannii [1] = assay type: cell-based, Acinetobacter baumannii; settings: 24 h incubation, MHB, triplicate
Source text: as §1, §2

[2] = system: LPSRa (LPS from E. coli EH100, Ra mutant); experiment: LPS affinity assay (BODIPY TR cadaverine displacement); assay type: binding; settings: 50% of BC probe bound to LPS displaced; Mean ± SE
Source text: (§3) Lipopolysaccharides (LPS) from E. coli O111:B4 (O-LPS), EH100 (Ra mutant), and J5 (Rc mutant), porcine mucin, Mueller Hinton broth (MHB) and Thiazolyl Blue Tetrazolium […] (MTT) were purchased at Sigma-Aldrich (Saint Louis, MO, USA). Colistin sulphate and Dimethyl sulfoxide (DMSO) were from Apollo Scientific (Stockport, UK). BODIPY® TR cadaverine (BC) were from Molecular Probes (Eugene, OR, USA). Mouse TNF-α ELISA Kit (MBS175787, MyBioSource, San Diego, CA, USA) and Mouse LPS ELISA Kit (MBS7700668, MyBioSource, San Diego, CA, USA) were from bioNova científica s.l. (Madrid, Spain) Human TNF-α ELISA set was from BD Biosciences (555212, BD OptEIA^TM, San Jose, CA, USA). Aspidasept® (pep19-2.5) is an antibacterial/anti-inflammatory peptide drug ([…], with C-terminal amide).
(§4) The LPS affinity was assessed using the fluorescent probe BC by an adaptation of the displacement assay reported. Peptides and colistin were serially diluted in a 96-well fluorescence plate from 20 to 0.16 μM in Tris/HCl 50 mM PH 7.4. Next, LPS and BC diluted in the same buffer were added to have the final concentration of 50 μg/mL and 5 μM, respectively. Fluorescence measurements were performed on Tecan Microplate Reader Spark® at 580 nm of excitation wavelength and 620 nm of the emission wavelength at 5 nm for optimal gain. Each test was performed in triplicate.

[3] = system: LPSRc (LPS from E. coli J5, Rc mutant); experiment: as above; assay type: binding; settings: 50% of BC probe bound to LPS displaced; Mean ± SE
Source text: as §3, §4

[4] = system: O-LPS (LPS from E. coli O111:B4); experiment: as above; assay type: binding; settings: 50% of BC probe bound to LPS displaced; Mean ± SE
Source text: as §3, §4

MRC-5 cells = experiment: Cytotoxicity assay (MTT); settings: MTT, Mean ± SE, N.D. = no reduction in cell viability detected at the highest concentration
Method: (§5) Cytotoxicity was measured for the MRC-5 and HEK293T cell lines by MTT assay. Cells were grown in 5% CO2 at 37 °C with MRC-5 cell line maintained in MEMα and HEK293T in DMEM/F-12 media, both of which were supplemented with 10% FBS. The cells were passaged in 25 cm^2 or 75 cm^2 flasks to prepare 96-well plates with 3 × 10^4 cells/well, which were incubated overnight. Next, serial dilutions of ECPep-D and ECPep-2D-Orn were added to have a final concentration ranging from 100 to 0.78 μM (375 μg/mL to 3 μg/mL) and colistin was added at final concentrations ranging from 300 to 2.34 μM (380 μg/mL to 3 μg/mL) in corresponding wells. After incubation to the specified time, the medium of the plate was replaced by fresh medium containing 0.5 mg/mL MTT solution and the mixture was incubated for 2.5 h in 5% CO2 at 37 °C. The medium was then removed, and formazan was dissolved by adding DMSO. The optical density (OD) was recorded by using a Victor^3 plate reader (PerkinElmer, Waltham, MA, USA) set at 540 nm and 620 nm as a reference. Each test was performed in triplicate.

HEK293T cells = system: HEK293T cells
Method: as §5

A. baumannii [5] = experiment: Efficacy assay in murine acute systemic infection model (survival); assay type: in vivo, Balb/c mice; settings: 10^8 CFU/kg A. baumannii, colistin 15 mg/kg
Method: An aliquot from an A. baumannii stock stored in 15% glycerol at −80 °C was taken to culture in 3 mL LB overnight at 250 rpm, 37 °C. Next, OD600 reading of A. baumannii overnight culture was performed to adjust to the number of bacteria required (CFU/mL) and then diluted by half with the same volume of 10% porcine mucin, to obtain a solution of selected CFU/mL in 5% mucin for mice inoculation. […] The inoculating volume was decided based on the body weight of each animal (10 mL/kg).
When the sum of the scores reached a maximum value of 7, the mice were euthanized following ethical principles. The infection was first tested at a concentration of 10^9 CFU/kg and then set at 10^7 CFU/kg and 10^8 CFU/kg. […] We also performed an extra assay where mice infected by 10^8 CFU/kg of A. baumannii were treated with colistin, used as a positive control.
To avoid bias, the reagents for these four groups were given to technicians in advance and renumbered randomly, designated as A, B, C, D, respectively. […]
The clinical symptoms were assessed through a scoring system, which contains 9 items, including changes of body weight, behavior, breathing, skin, hair, eyes and gastrointestinal status (see full list at Table S2). […] During the study, when an animal obtained a score of 3 in any of the parameters assessed with a maximum score of 3, euthanasia was carried out to apply the endpoint criteria. […]

LPS = LPS in serum of infected mice by ELISA; assay type: in vivo, Balb/c mice; settings: second efficacy assay, colistin 15 mg/kg versus ECPep-D 20 mg/kg, p < 0.1
Method: In the second efficacy study, the blood of animals that either died for severe clinical symptoms or were euthanized at the end of the assay, were collected for testing TNF-α and LPS levels by ELISA. In order to check the levels of TNF-α and free LPS, only serum was analyzed, after discarding blood cells by centrifugation. The blood from mice was centrifuged at 3200 rpm for 30 min and the supernatants were collected carefully to ensure that there were no sediments left. Mouse ELISA kits for TNF-α and LPS were used.
According to the description of the manufacturer, LPS level determination is based on the principle of double antibody sandwich technology, where the microplates pre-coated with specific antibodies were used. Following addition of serum samples to the wells, the HRP-Conjugate reagent was added to form an immune complex. After incubation and washing, the unbound enzyme was removed. Then, chromogen substrates were added successively and optical density was recorded using microplate reader set at 450 nm. Sample readings were corrected using the baseline corresponding to serum of mice neither infected nor treated. A calibration standard curve was prepared and final calculated values were positively correlated with the concentration of LPS. Two replicates were performed according to the protocols for the representation of the standard curve and the sample testing.

[6] = cited from earlier work

Colistin sulphate [reference compound]
MIC E. coli (E. coli): 5 μM and 6.34 μg/mL | MIC P. aeruginosa (P. aeruginosa): 0.31 μM and 0.40 μg/mL | MIC A. baumannii (A. baumannii [1]): 0.31 μM and 0.40 μg/mL | EC50 [2]: 13.1 ± 0.4 µM | EC50 LPSRa [2]: 16.63 ± 0.50 µg/mL | EC50 [3]: 19.2 ± 0.34 µM | EC50 LPSRc [3]: 24.31 ± 0.42 µg/mL | EC50 [4]: 7.87 ± 0.33 µM | EC50 O-LPS [4]: 9.97 ± 0.42 µg/mL | LD50 (MRC-5) 24 h (MRC-5 cells; 24 h): >300 μM and >380.26 μg/mL | LD50 (MRC-5) 48 h (MRC-5 cells; 48 h): >300 μM and >380.26 μg/mL | IC50 (HEK293T) 48h (HEK293T cells; MTT, Mean ± SE): > 380.26 µg/mL | IC50 (HEK293T cells; read-out: IC50 (HEK293T) 48h, MTT, Mean ± SE): > 300 µM | survival rate, first efficacy assay (A. baumannii [5]; i.p. once every 24 h for 3 days from 2 h post inoculum, peptides 10 mg/kg, 3 days): 100% | survival rate after 3 days (72 h), second efficacy assay (A. baumannii [5]; single i.p. dose 2 h post inoculum, peptides 20 mg/kg, 72 h): 100% | concentration of LPS in serum, Day 3 (LPS): slightly increased | LD50 by intraperitoneal administration ([6]; Swiss albino mice, single injection): 20 to 30 mg/kg | deaths from neurotoxicity ([6]; mice receiving 32 mg/(kg × day), after three doses): three of twelve mice died | LD50 for the intraperitoneal route ([6]; mice, ref U.S. National Library of Medicine ChemIDplus 1264-72-8): 21.8 mg/kg
